The values that follow come from PMC11653257, “Organometallic Half-Sandwich Complexes of 8-Hydroxyquinoline-Derived Mannich Bases with Enhanced Solubility: Targeting Multidrug Resistant Cancer” (Inorganic Chemistry, 2024).

In brackets after ≈: the same amount, converted by molar mass. Read-outs that look alike come from different tables or passages of the source.

Data set [1] can be described thus: pKa of the ligands by UV–vis titration. To be noted: for pKa: 0.20 M KNO3, UV–vis, I = 0.20 M KNO3, 10 equiv. EDTA. It is filed as physicochemical. As to the method: (§1) Physico-chemical properties such as aqueous solubility, lipophilicity, and the actual protonation state at a given pH are known to influence the pharmacokinetic behavior of a drug.
(§2) An Agilent Cary 8454 diode array spectrophotometer was utilized to obtain UV–vis spectra in the wavelength range 190–1100 nm. The path length (l) was 1 or 2 cm in most cases (the actual l is always indicated in the legends of the figures). The concentrations of the ligands and complexes were between 36 and 100 μM. The ligands were titrated in the presence of 10 equiv of EDTA. Individual samples contained 0–37 μM HSA, 0–206 μM MIM, 0–759 μM AHA, or 0–733 μM FHA. Spectra were always background and baseline corrected. The computer program HypSpec[64] was used to obtain stability constants.

Data set [2] can be described thus: pKa of the ligands by 1H NMR titration. It is filed as physicochemical. The conditions noted are these: 0.20 M KNO3 with 10% (v/v) D2O, I = 0.20 M KNO3, 25.0 °C, read-out: pKa (OH). As to the method:
as §1
(§3) Bruker Avance III HD Ascend 500 Plus instrument (Billerica, MA, USA) was used for NMR studies. ^1H NMR spectroscopic measurements were carried out with a WATERGATE water suppression pulse scheme in the presence of 10% (v/v) D2O in most cases. DSS internal standard was added to samples to obtain reference peaks. ^1H NMR titrations were carried out in the presence of 0.20 M KNO3. The computer program HypSpec[64] was used to obtain equilibrium constants.

Data set [3] is described as follows: n-octanol/water distribution coefficient (shake-flask). It is filed as physicochemical. To be noted: pH 7.4. As to the method:
The exchange of the coligand (H2O/Cl^–) changes the overall charge of the complex, thus affecting lipophilicity. […] The traditional shake-flask method was used to obtain distribution coefficients of the ligands as well as of the complexes in n-octanol/buffered aqueous solution (20 mM phosphate, pH = 7.4) at different chloride ion concentrations (4, 24, and 100 mM) using UV–vis spectrophotometry (Agilent Cary 8454 diode array spectrophotometer, Santa Clara, CA, USA) for the analysis. The compounds were dissolved in buffered aqueous solutions previously saturated with n-octanol. Then the aqueous and n-octanol phases were gently mixed in different volume ratios (using 1:60 for the ligands, 1:1 for the RhCp* and 1:2 for the RuCym complexes ratios of n-octanol to buffered aqueous solution volume) for 4 h, followed by phase separation. Then the UV–vis spectrum of the aqueous or n-octanol phase was recorded and compared to the reference spectrum. Stock solutions were made in the aqueous phase, and distribution coefficients (DpH) were calculated by the following equation: [drawing 3]

A short description of data set [4]: Thermodynamic aqueous solubility at pH 7.4. To be noted: 10 mM HEPES buffer, thermodynamic from solid, pH 7.4 (10 mM HEPES), 25.0 °C, read-out: thermodynamic aqueous solubility S7.4. The format is physicochemical. As to the method:
The concentration of the compounds was determined by UV–vis spectrophotometry. For calibration, stock solutions of the compounds were used with known concentrations dissolved in 100% DMSO, 75% DMSO, and 50% (v/v) DMSO/buffered aqueous solutions.

In a further data set the test system is Colo320. Nature of the data set: Cytotoxicity, Colo320. It is filed as cell-based, human. To be noted: this work. An excerpt:
Supplementary Information
(11 pictures or pasted objects on this page, not shown here)

For data set [5], the system named is Escherichia coli (ATCC 25922). Nature of the data set: Antibacterial MIC, E. coli. It is filed as cell-based. To be noted: Mueller Hinton Broth, 37 °C, 18 h. As to the method:
(§4) Escherichia coli (ATCC 25922) was used as Gram-negative strain and Staphylococcus aureus (ATCC 25923, methicillin-resistant (MRSA) ATCC 43300) strains were applied as Gram-positive bacterial cultures in the experiments. MIC values of the compounds were determined in 96-well plates based on the Clinical and Laboratory Standard Institute guidelines (CLSI guidelines).[76] The stock solutions of the compounds (same as those used for cytotoxicity experiments) were diluted in 100 μL of Mueller Hinton Broth. Then, 10^–4 dilution of an overnight bacterial culture in 100 μL of medium was added to each well, with the exception of the medium control wells.

Data set [6] deals with Staphylococcus aureus (ATCC 25923). Kind of data set: Antibacterial MIC, S. aureus. It is filed as cell-based. To be noted: Mueller Hinton Broth, 37 °C, 18 h. As to the method:
as §4

Data set [7] has as its system methicillin-resistant S. aureus (MRSA) ATCC 43300. Nature of the data set: Antibacterial MIC, MRSA. It is filed as cell-based, Staphylococcus aureus. The conditions noted are these: Mueller Hinton Broth, 37 °C, 18 h. As to the method:
as §4

Data set [8] relates to MES-SA. To be noted: monoculture, PrestoBlue; ref SI3; cited from earlier work.
For data set [9], the system named is MES-SA/Dx5. To be noted: monoculture, ref SI3, cited from earlier work.
The test system of a further data set is A431. On the set-up: method as in earlier work. To be noted: monoculture, 72 h, PrestoBlue; ref SI3; cited from earlier work.
In a further data set the test system is A431-B1. Also on record: method as in earlier work. To be noted: monoculture, ref SI3, cited from earlier work.
Data set [10] concerns the target human serum albumin (HSA), Trp214 / site I (Homo sapiens, UniProt P02768). Nature of the data set: HSA Trp214 fluorescence quenching.
Description: (§6) Next, spectrofluorometric measurements were also performed to gain insight into the binding interactions that may occur in the hydrophobic binding sites of HSA. Tryptophan (Trp214) quenching experiments were conducted for the complexes (1–4) (for complex (3) see Figure S31) and their ligands). […] To monitor the binding at site II, site marker displacement experiments were performed using dansylglycine (DG).
(§7) Fluorescence measurements were carried out on a Fluoromax (Horiba Jobin Yvon, Longjumeau, France) spectrofluorometer using a 1 cm × 1 cm quartz cuvette. […] Excitation wavelengths were 295 nm for Trp-214 quenching and 340 nm for the DG displacement studies. The calculated conditional stability constants for HSA–complex species were obtained using the computer program HypSpec.[64] Calculations always were based on data obtained from at least two independent measurements.
In data set [11] the target is human serum albumin (HSA), site II (Homo sapiens, UniProt P02768). Nature of the data set: HSA dansylglycine (DG) site marker displacement.
Description: as §6, §7
Data set [12] is described as follows: pKa of in situ prepared complexes by UV–vis titration. The format is physicochemical. The conditions noted are these: 1:1 system, absence of chloride, I = 0.20 M KNO3.
Text: The UV–vis spectra of the complexes prepared in situ were then followed at different pH values in the absence of chloride ions. No spectral changes were observed between pH = 2–6.3 (RuCym) or 7.5 (RhCp*), indicating high solution stability in both cases; however, the changes were significant in the basic pH range (Figure S22). In the case of RuCym complexes, two overlapping processes associated with the deprotonation of the coordinated water molecule and the noncoordinated Npyr/pipH^+ moiety were observed. […] The pKa values determined for these processes are shown in Table 2 and Figure S23 together with the values obtained for complexes formed with the amino acid hybrids HQCl-D-Pro and HQCl-D-hPro (Chart 2) for comparison.[26]
as §2

Data set [13] can be described thus: pKa of in situ prepared complexes by 1H NMR titration. The format is physicochemical. The conditions noted are these: 1:1 system, I = 0.20 M KNO3.
Text: (§5) The results, shown in Table 2, indicate good agreement between the data obtained by the different methods. It should be noted that these processes show overlap in all cases, and therefore, the assignment of the pKa values to the given moieties cannot be made reliably. However, by comparing the spectral changes with those observed for HQ and other simple derivatives,[25] it can be concluded that the lower pKa likely belongs to the deprotonation of the aqua coligand.
as §3

The nature of data set [14]: pKa of in situ prepared complexes by pH-potentiometry. The format is physicochemical. To be noted: I = 0.20 M KNO3.
Text: as §5
The pH-potentiometric measurements were carried out at 25.0 ± 0.1 °C in water in the pH range between 2.0 and 11.5 and at a constant ionic strength of 0.20 M KNO3. The titrations were performed in a carbonate-free KOH solution (0.20 M). The exact concentrations of the HNO3 and KOH solutions were determined by pH-potentiometric titrations. An Orion 710A pH-meter equipped with a Metrohm combined electrode (type 6.0234.100) and a Metrohm 665 Dosimat buret were used for this purpose. […] The average water ionization constant, pKw, was determined as 13.76 ± 0.01, which is in good agreement with the literature data.[67] The initial volume of the samples was 10.0 mL. […] Samples were degassed by bubbling purified argon through them for about 10 min prior to the measurements, and the inert gas was also passed over the solutions during the titrations. The computer program Hyperquad2013[64] was utilized to establish the stoichiometry of the species and to calculate the equilibrium constants.

Data set [15] in a line: H2O/Cl– coligand exchange by UV–vis titration with chloride ions. It is filed as physicochemical. To be noted: RuCym complexes titrated at pH 6.0. The protocol:
When the isolated complexes (1–4) are dissolved in water, their chlorido coligand can be replaced by water, or vice versa in the aqua complexes [M(arene)(HL)(H2O)]^2+, the H2O → Cl^– exchange process can take place in the presence of chloride ions. The chloride ion affinity of the complexes was also investigated by UV–vis spectrophotometry. RhCp* and RuCym complexes were titrated with chloride ions at pH 7.4 and 6.0, respectively. For this experiment, pH values were chosen at which the formation of the mixed hydroxido species is negligible. A representative spectrum series for complex (4) is shown in Figure S27, and the calculated conditional exchange constants (logK’ (H2O/Cl^–)) are given in Table 2 and in Figure S23. […] The complexes of the amino acid hybrids HQCl-D-Pro and HQCl-D-hPro have lower logK’ (H2O/Cl^–) constants most likely due to the repulsive effect of the nearby COO^– group.[26]

Data set [16] relates to MES-SA. Nature of the data set: Cytotoxicity in double coculture, MES-SA mCherry. The conditions noted are these: read-out: IC50 MES-SA; double coculture with MES-SA/Dx5; 144 h; without TQ.
For data set [17], the system named is MES-SA/Dx5. Kind of data set: Cytotoxicity in double coculture, MES-SA/Dx5 eGFP. To be noted: for SR = IC50 (MES-SA)/IC50 (MES-SA/Dx5): double coculture.
Description: Therefore, the novel half-sandwich complexes (1–4) and their corresponding ligands were tested against a coculture of MES-SA and MES-SA/Dx5 cells expressing the fluorescent proteins mCherry or eGFP, respectively.[62]
MES-SA/B1 is a human MDR1-transfected derivative of MES-SA, and MES-SA mCherry, MES-SA/B1 mOrange, and MES-SA/Dx5 eGFP were engineered to stably express the respective fluorescent proteins previously.[62] Cells were kept in culture medium (DMEM) supplemented with 10% fetal bovine serum, 2 mM L-glutamine, 100 units/mL penicillin, and 100 μg/mL streptomycin (Thermo Fisher). One week before use, MES-SA/Dx5 eGFP cells were treated with 0.5 μM doxorubicin to ensure ABCB1/P-gp expression.
The tested compounds were dissolved in 50% (v/v) DMSO/PBS’ buffer to prepare 5–10 mM stock solutions, which were diluted in complete culture medium. Constitutive expression of the fluorescent proteins allowed multiplexing in cytotoxicity experiments.[62] […] Serial dilutions of the compounds were added 24 h after seeding. To address the effect of P-gp function, TQ was added at a nontoxic concentration (0.4 μM) 15 min before the test compounds. […] IC50 values and standard deviation were calculated from average pIC50 values from at least 3 independent measurements.
Setting [18] is: pH 7.4, based on the pKa values.

Chain of human serum albumin (HSA), Trp214 / site I (P02768 25-609): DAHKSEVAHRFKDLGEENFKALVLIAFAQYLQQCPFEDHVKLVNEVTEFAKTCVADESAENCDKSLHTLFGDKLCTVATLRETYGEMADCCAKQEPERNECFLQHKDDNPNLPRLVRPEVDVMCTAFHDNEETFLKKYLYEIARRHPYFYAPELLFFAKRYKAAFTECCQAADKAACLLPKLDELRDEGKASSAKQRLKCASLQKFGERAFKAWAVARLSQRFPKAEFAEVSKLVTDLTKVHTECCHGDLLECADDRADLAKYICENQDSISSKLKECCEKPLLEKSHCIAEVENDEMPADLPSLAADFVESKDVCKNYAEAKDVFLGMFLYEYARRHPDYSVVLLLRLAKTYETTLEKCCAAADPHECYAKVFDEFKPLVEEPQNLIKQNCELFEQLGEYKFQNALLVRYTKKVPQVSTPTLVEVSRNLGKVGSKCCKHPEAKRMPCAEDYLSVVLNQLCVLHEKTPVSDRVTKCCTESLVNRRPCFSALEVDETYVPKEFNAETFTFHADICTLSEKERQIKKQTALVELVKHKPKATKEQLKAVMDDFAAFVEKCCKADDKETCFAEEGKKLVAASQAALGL
Chain of human serum albumin (HSA), site II (P02768 25-609): as above

The term solubility (thermodynamic) denotes the concentration in solution at equilibrium with solid. As a reminder, the MIC is the lowest concentration found to suppress growth. As a reminder, the Kd is the free concentration of one partner at which half of the binding sites on the other are occupied at equilibrium, for simple one-to-one binding. Regarding `Oc1c(CN2CCCC2)cc(Cl)c2cccnc12` [HQCl-pyr, 5-chloro-7-(pyrrolidin-1-ylmethyl)quinolin-8-ol], the pKa in [1] (read-out: pKa (Npyr/pipH+)) was 11.36 ± 0.1; in data set [1] (read-out: pKa (NqH+)) it was less than 2; in [1] (read-out: pKa (OH)) it was 7.53 ± 0.05; in data set [2], 7.65 ± 0.02. In addition, in data set [1] (setting [18]), the “fraction of H2L+” value came out at 51%. Moreover, the “fraction of HL” value in data set [1] (setting [18]) was 49%. Moreover, in data set [3] (n-octanol/buffered aqueous solution, n-octanol/H2O, read-out: log D7.4), the logD at 4 h is 1.83. The solubility (thermodynamic) in data set [4] is 516 ± 2 µM (≈ 136 µg/mL). Further, in the data set on Colo320, the “SR (Colo205 / Colo320)” value is reported as 2.0. The MIC in data set [5] (Escherichia coli, ATCC25922) worked out at 50 µM (≈ 13.1 µg/mL); in data set [6] (Staphylococcus aureus, ATCC25923) it was 50 µM (≈ 13.1 µg/mL); in [7] (Staphylococcus aureus), 50 µM (≈ 13.1 µg/mL). Further, the IC50 in the data set on MES-SA [8] was 3.46 ± 0.51 µM; in the data set on MES-SA/Dx5 [9] (PrestoBlue), 0.3 ± 0.06 µM; in the data set on A431 it was 7.45 ± 0.15 µM; with A431-B1 (72 h, PrestoBlue) it was 1.97 ± 0.25 µM. Besides, the entries for the “SR (MES-SA / MES-SA/Dx5)” value in the data set on MES-SA/Dx5 [9] (+ 1 µM TQ) and in the data set with MES-SA/Dx5 [9] were 1.35 and 11.53, respectively. Further, the “SR (A431 / A431-B1)” value in the data set on A431-B1 is listed as 3.79. The dissociation constant (Kd) in [10] stood at 25.1 µM; in data set [11], 12.6 µM.
For the compound [RuCym(HQCl-Pip)Cl]Cl [(4)], the logD7.4 entry is given as “+0.35 ± 0.02” in data set [3] (c(Cl–) = 4 mM), “+0.72 ± 0.02” in [3] (c(Cl–) = 24 mM) and “+0.89 ± 0.02” in data set [3] (c(Cl–) = 100 mM). The “pKa (H2O)” value is 8.39 ± 0.10 in data set [12], 8.50 ± 0.02 in [13] and 8.43 ± 0.08 in data set [14]. Further, the “pKa (Npyr/pipH+)” value is recorded as 10.06 ± 0.05 in [12], 10.19 ± 0.02 in data set [13] and 10.07 ± 0.07 in [14]. Moreover, the “logK’ (H2O/Cl–)” value in data set [15] came out at 1.78 ± 0.02. For the same compound, the minimum inhibitory concentration (MIC) in data set [5], in data set [6] and in [7] was greater than 100 µM throughout. Besides, in data set [10] (1 μM HSA, λEX = 295 nm (Trp-214), pH 7.4 (PBS’), […], 24 h), the “logK’(quenching)” value was 5.4 ± 0.2. Also, the “logK’(DG)” value in [11] (cHSA = cDG = 1 μM, λEX = 335 nm (DG), pH 7.4 (PBS’), […], 24 h) is given as 5.3 ± 0.1. The IC50 with MES-SA [16] is 3.46 µM; with MES-SA/Dx5 [17] (read-out: IC50 MES-SA/Dx5, double coculture with MES-SA, 144 h, without TQ) it was 1.92 µM. Further, the “SR = IC50 (MES-SA)/IC50 (MES-SA/Dx5)” value in the data set with MES-SA/Dx5 [17] (+ 0.4 μM tariquidar (TQ)) is 0.2; in the data set with MES-SA/Dx5 [17] (without TQ), 1.8.
